# Biological target: T1, human recombinant CCR4 receptor (Homo sapiens, UniProt P51679)
# T1 construct: Brussels, Belgium; host or cells: CHO-K1
# T1 sequence (P51679 1-360): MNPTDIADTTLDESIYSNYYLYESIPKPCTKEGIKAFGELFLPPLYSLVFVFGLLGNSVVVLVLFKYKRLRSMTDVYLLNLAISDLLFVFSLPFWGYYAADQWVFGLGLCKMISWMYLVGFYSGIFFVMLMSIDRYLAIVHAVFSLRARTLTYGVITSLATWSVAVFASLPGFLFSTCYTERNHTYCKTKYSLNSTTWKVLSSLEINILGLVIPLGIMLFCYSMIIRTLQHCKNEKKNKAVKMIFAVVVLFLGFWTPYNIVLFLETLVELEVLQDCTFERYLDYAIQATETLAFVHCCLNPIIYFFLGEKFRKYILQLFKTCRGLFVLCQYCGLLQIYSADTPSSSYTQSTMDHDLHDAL
# Assay: FMAT whole cell binding assay (FB-MDC binding to CHO-K1 cells expressing CCR4)
# Settings: inhibition of FB-MDC binding to CHO-K1 cells expressing human recombinant CCR4; two hours incubation at room temperature; mean
# Experimental: FMAT Whole Cell Binding Assay
# CHO-K1 cells stably expressing the human recombinant CCR4 receptor (Euroscreen; Brussels, Belgium) were cultured in NUT.MIX.F—12(HAM) medium with glutamax-1, containing 10% (v/v) foetal bovine serum and 400 μg ml^−1 geneticin
# Cells were harvested at approximately 70% confluence by treatment with a cell dissociation buffer, and seeded at 5×10^3 cells/100 μl culture medium into wells of a black Costar clear-bottomed 96-well microtitre plates. Plates were incubated overnight at 37° C. in 5% CO2 and used the following day.
# Before use, the cell plates were washed twice with 100 μl Hanks balanced salt solution (HBSS). To each well was then added 65 μl of HBSS, 10 μL of 10% DMSO in HBSS±test compound and then 25 μL of 2.8 nM FB-MDC (Applied Biosystems). This fluorescent probe was prepared from a 10 μM stock in 0.08% (v/v) TFA/16% (v/v) acetonitrile, diluted into HBSS.
# After two hours incubation in the dark at room temperature, the plates were analysed in an FMAT8100 reader (Applied Biosystems) to measure fluorescence that was associated with binding of FB-MDC to the cells. Compound activity was determined as an pIC50 [log(concentration of compound that results in 50% inhibition)], comparing fluorescence in control and background wells.
row,Structure (SMILES),IC50
1,"COc1nc(SC[C@H](N)C(N)=O)cnc1NS(=O)(=O)c1cccc(Cl)c1Cl [Example 4, (2R)-2-Amino-3-[[5-[[(2,3-dichlorophenyl)sulfonyl]amino]-6-methoxypyrazinyl]thio]propanamide]",631 nM
2,"COc1nc(SCC(O)c2nccs2)cnc1NS(=O)(=O)c1cccc(Cl)c1Cl (centres unmarked) [Example 15, 2,3-Dichloro-N-[5-[[2-hydroxy-2-(2-thiazolyl)ethyl]thio]-3-methoxypyrazinyl]-benzenesulfonamide]",398 nM

# Tested on: not given
# Assay: not given
# Settings: not given
row,Structure (SMILES),melting point
1,COC(=O)[C@@H](N)CSc1nc(OC)c(NS(=O)(=O)c2cccc(Cl)c2Cl)nc1C,164 to 168 °C
2,"COC(=O)[C@@H](N)CSc1cnc(NS(=O)(=O)c2cccc(Cl)c2Cl)c(OC)n1 [Example 2, S-[5[[(2,3-Dichlorophenyl)sulfonyl]amino]-6-methoxypyrazinyl]-L-cysteine, methyl ester]",170 to 174 °C
3,"COc1nc(SC[C@H](N)C(=O)O)cnc1NS(=O)(=O)c1cccc(Cl)c1Cl [Example 3, S-[5-[[(2,3-Dichlorophenyl)sulfonyl]amino]-6-methoxypyrazinyl]-L-cysteine]",180 to 190 °C
4,"COc1nc(SC[C@H](N)C(N)=O)cnc1NS(=O)(=O)c1cccc(Cl)c1Cl [Example 4, (2R)-2-Amino-3-[[5-[[(2,3-dichlorophenyl)sulfonyl]amino]-6-methoxypyrazinyl]thio]propanamide]",148 to 152 °C
5,"CNC(=O)[C@@H](N)CSc1cnc(NS(=O)(=O)c2cccc(Cl)c2Cl)c(OC)n1 [Example 5, (2R)-2-Amino-3-[[5-[[(2,3-dichlorophenyl)sulfonyl]amino]-6-methoxypyrazinyl]thio]-N-methyl-propanamide]",160 to 164 °C
6,"COc1nc(SC[C@H](N)C(=O)N(C)C)cnc1NS(=O)(=O)c1cccc(Cl)c1Cl [Example 6, (2R)-2-Amino-3-[[5-[[(2,3-dichlorophenyl)sulfonyl]amino]-6-methoxypyrazinyl]thio]-N,N-dimethylpropanamide]",187 to 190 °C
7,"COC(=O)[C@@H](N)CSc1nc(OC)c(NS(=O)(=O)c2cccc(Cl)c2Cl)nc1Cl [Example 8, S-[3-Chloro-5-[[(2,3-dichlorophenyl)sulfonyl]amino]-6-methoxypyrazinyl]-L-cysteine, methyl ester]",170 to 173 °C
8,"COc1nc(SC[C@H](N)C(=O)O)c(Cl)nc1NS(=O)(=O)c1cccc(Cl)c1Cl [Example 9, S-[3-Chloro-5[[(2,3-dichlorophenyl)sulfonyl]amino]-6-methoxypyrazinyl]-L-cysteine]",170 to 173 °C
9,"COc1nc(SC[C@H](N)CO)c(Cl)nc1NS(=O)(=O)c1cccc(Cl)c1Cl [Example 10, N-[5-[[(2R)-2-Amino-3-hydroxypropyl]thio]-6-chloro-3-methoxypyrazinyl]-2,3-dichlorobenzenesulfonamide]",255 to 256 °C
10,"COc1nc(SCC(O)CO)cnc1NS(=O)(=O)c1cccc(Cl)c1Cl (centres unmarked) [Example 19, 2,3-Dichloro-N-[5-[(2,3-dihydroxypropyl)thio]-3-methoxypyrazinyl]benzenesulfonamide]",136 to 138 °C
11,"COc1nc(SCC(O)c2ccccc2)cnc1NS(=O)(=O)c1cccc(Cl)c1Cl (centres unmarked) [Example 20, 2,3-Dichloro-N-[5-[(2-hydroxy-2-phenylethyl)thio]-3-methoxypyrazinyl]benzenesulfonamide]",141 to 143 °C
12,"COc1nc(SCC(O)c2cccnc2)cnc1NS(=O)(=O)c1cccc(Cl)c1Cl (centres unmarked) [Example 21, 2,3-Dichloro-N-[5-[[2-hydroxy-2-(3-pyridinyl)ethyl]thio]-3-methoxypyrazinyl]benzenesulfonamide]",188 to 190 °C
13,"COc1nc(SCC(N)c2cccnc2)cnc1NS(=O)(=O)c1cccc(Cl)c1Cl (centres unmarked) [Example 22, N-[5-[[2-Amino-2-(3-pyridinyl)ethyl]thio]-3-methoxypyrazinyl]-2,3-dichloro benzenesulfonamide]",175 to 178 °C
14,"COc1nc(SCC(O)c2ccncc2)cnc1NS(=O)(=O)c1cccc(Cl)c1Cl (centres unmarked) [Example 23, 2,3-Dichloro-N-[5-[[2-hydroxy-2-(4-pyridinyl)ethyl]thio]-3-methoxypyrazinyl]benzenesulfonamide]",176 to 177 °C
15,"COc1nc(SCC(O)c2ccccn2)cnc1NS(=O)(=O)c1cccc(Cl)c1Cl (centres unmarked) [Example 24, 2,3-Dichloro-N-[5-[[2-hydroxy-2-(2-pyridinyl)ethyl]thio]-3-methoxypyrazinyl]benzenesulfonamide]",143 to 145 °C
16,"COC(=O)[C@@H](O)CSc1cnc(NS(=O)(=O)c2cccc(Cl)c2Cl)c(OC)n1 [Example 25, 3-[[5[[(2,3-Dichlorophenyl)sulfonyl]amino]-6-methoxypyrazinyl]thio]-(2R)-2-hydroxypropanoic acid, methyl ester]",88 to 90 °C
17,"COc1nc(SCC(N)c2ccccn2)cnc1NS(=O)(=O)c1cccc(Cl)c1Cl (centres unmarked) [Example 26, N-[5-[[2-Amino-2-(2-pyridinyl)ethyl]thio]-3-methoxypyrazinyl]-2,3-dichlorobenzenesulfonamide]",172 to 174 °C
18,"COc1nc(SCC(N)c2nccn2C)cnc1NS(=O)(=O)c1cccc(Cl)c1Cl (centres unmarked) [Example 27, N-[5-[[2-Amino-2-(1-methyl-1H-imidazol-2-yl)ethyl]thio]-3-methoxypyrazinyl]-2,3-dichlorobenzenesulfonamide]",187 to 189 °C
19,"CNC(=O)[C@@H](N)CSc1nc(OC)c(NS(=O)(=O)c2cccc(Cl)c2Cl)nc1Cl [Example 28, (2R)-2-Amino-3-[[3-chloro-5-[[(2,3-dichlorophenyl)sulfonyl]amino]-6-methoxypyrazinyl]thio]-N-methylpropanamide]",150 to 155 °C
20,"CNC(=O)[C@@H](N)CSc1nc(OC)c(NS(=O)(=O)c2cccc(Cl)c2Cl)nc1C [Example 29, (2R)-2-Amino-3-[[5[[(2,3-dichlorophenyl)sulfonyl]amino]methoxy-3-methylpyrazinyl]thio]-N-methylpropanamide]",68 to 80 °C
21,"COc1nc(SCC(N)c2nccs2)cnc1NS(=O)(=O)c1cccc(Cl)c1Cl (centres unmarked) [Example 30, N-[5-[[2-Amino-2-(2-thiazolyl)ethyl]thio]-3-methoxypyrazinyl]-2,3-dichlorobenzenesulfonamide]",168 to 169 °C
